Assay results published in ChEMBL document CHEMBL4390695, “Veratric acid derivatives containing benzylidene-hydrazine moieties as promising tyrosinase inhibitors and free radical scavengers” (Bioorg Med Chem, 2019).
The source made the active and inactive calls. The rule behind the calls is not given here.

T1: Tyrosinase (Agaricus bisporus) (UniProt O42713)
T1 sequence (whole entry): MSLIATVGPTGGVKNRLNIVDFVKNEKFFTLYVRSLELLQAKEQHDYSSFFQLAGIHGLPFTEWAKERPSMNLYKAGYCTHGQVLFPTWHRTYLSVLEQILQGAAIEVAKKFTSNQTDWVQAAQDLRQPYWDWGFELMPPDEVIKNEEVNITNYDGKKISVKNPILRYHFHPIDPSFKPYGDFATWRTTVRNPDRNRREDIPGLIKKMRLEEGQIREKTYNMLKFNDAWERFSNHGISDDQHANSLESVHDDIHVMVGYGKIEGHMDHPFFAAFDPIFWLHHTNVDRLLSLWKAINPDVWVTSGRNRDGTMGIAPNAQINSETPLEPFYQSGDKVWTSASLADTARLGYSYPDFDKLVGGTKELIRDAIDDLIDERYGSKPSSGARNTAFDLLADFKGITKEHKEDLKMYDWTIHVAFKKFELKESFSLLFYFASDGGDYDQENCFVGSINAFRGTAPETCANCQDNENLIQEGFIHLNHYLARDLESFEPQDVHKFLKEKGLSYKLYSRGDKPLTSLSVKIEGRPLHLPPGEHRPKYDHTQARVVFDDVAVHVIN

T2: Tyrosinase (Agaricus bisporus, UniProt O42713)
T2 sequence (O42713 whole entry): T1 sequence (whole entry)

B1: Tyrosinase (Agaricus bisporus), O42713 (protein)
chain: T1 sequence (whole entry)

These molecules were tested against T1, Tyrosinase (Agaricus bisporus) (assay: Competitive inhibition of mushroom tyrosinase assessed as reduction in dopachrome formation at 50 uM using L-DOPA as substrate preincubated for 20 mins followed by substrate addition by spectrophotometry based Lineweaver-Burk plot analysis). Details: not given.

inhibition | Molecule
Active | COc1ccc(C(=O)N/N=C/c2ccc(Cl)cc2)cc1OC

Each molecule was assayed on COc1ccc(C(=O)N/N=C/c2ccc(Cl)cc2)cc1OC (assay: Competitive inhibition of mushroom tyrosinase assessed as reduction in dopachrome formation by measuring substrate Vmax at 50 uM using L-DOPA as substrate preincubated for 20 mins followed by substrate addition by spectrophotometry based Lineweaver-Burk plot analysis (reference value: […] mM/min)). Details: Agaricus bisporus.

Molecule | Vmax
B1 | 0.15 mM/min

The molecules below were run on COc1ccc(C(=O)N/N=C/c2ccc(Cl)cc2)cc1OC (assay: Competitive inhibition of mushroom tyrosinase assessed as reduction in dopachrome formation by measuring substrate Km at 50 uM using L-DOPA as substrate preincubated for 20 mins followed by substrate addition by spectrophotometry based Lineweaver-Burk plot analysis (reference value: […] mM)). Details: Agaricus bisporus.

Molecule | Km
B1 | 5.88 mM

Each molecule was assayed against T2, Tyrosinase (assay: Inhibition of mushroom tyrosinase assessed as reduction in dopachrome formation using L-DOPA as substrate preincubated for 20 mins followed by substrate addition by spectrophotometry). Details: not given.

IC50 | Molecule
> 50 µM | COc1ccc(C(=O)N/N=C/c2ccc(O)cc2)cc1OC
20.6 µM | COc1ccc(C(=O)N/N=C/c2cccc(O)c2O)cc1OC
35.2 µM | COc1ccccc1/C=N/NC(=O)c1ccc(OC)c(OC)c1
37.4 µM | COc1ccc(C(=O)N/N=C/c2cc(OC)c(OC)c(OC)c2)cc1OC
28.3 µM | COc1ccc(C(=O)N/N=C/c2ccc(OC(C)=O)c(OC)c2)cc1OC
> 50 µM | COc1ccc(C(=O)N/N=C/c2cccc([N+](=O)[O-])c2)cc1OC
19.7 µM | COc1ccc(C(=O)N/N=C/c2ccc(Cl)cc2)cc1OC
> 50 µM | COc1ccc(/C=N/NC(=O)c2ccc(OC)c(OC)c2)cc1
> 50 µM | COc1ccc(/C=N/NC(=O)c2ccc(OC)c(OC)c2)cc1OC
> 50 µM | CCOc1cc(/C=N/NC(=O)c2ccc(OC)c(OC)c2)ccc1O
> 50 µM | COc1ccc(C(=O)N/N=C/c2cc(OC)c(O)c(OC)c2)cc1OC
> 50 µM | COc1ccc(C(=O)N/N=C/c2ccc([N+](=O)[O-])cc2)cc1OC
> 50 µM | COc1cc(/C=N/NC(=O)c2ccc(OC)c(OC)c2)ccc1O
> 50 µM | COc1ccc(C(=O)N/N=C/c2ccc(Br)cc2)cc1OC
31.5 µM | COc1ccc(C(=O)N/N=C/c2ccc(O)cc2O)cc1OC
> 50 µM | COc1ccc(C(=O)N/N=C/c2ccc(N(C)C)cc2)cc1OC
